In publication PMC5976863, “The Active Components of Fuzheng Huayu Formula and Their Potential Mechanism of Action in Inhibiting the Hepatic Stellate Cells Viability – A Network Pharmacology and Transcriptomics Approach” (Frontiers in Pharmacology, 2018):
Like-named read-outs stand apart in the source and are kept apart here.

Target: T1, peroxisome proliferator activator receptor gamma (PPARG) (Homo sapiens, UniProt P37231)
T1 sequence (P37231 1-505): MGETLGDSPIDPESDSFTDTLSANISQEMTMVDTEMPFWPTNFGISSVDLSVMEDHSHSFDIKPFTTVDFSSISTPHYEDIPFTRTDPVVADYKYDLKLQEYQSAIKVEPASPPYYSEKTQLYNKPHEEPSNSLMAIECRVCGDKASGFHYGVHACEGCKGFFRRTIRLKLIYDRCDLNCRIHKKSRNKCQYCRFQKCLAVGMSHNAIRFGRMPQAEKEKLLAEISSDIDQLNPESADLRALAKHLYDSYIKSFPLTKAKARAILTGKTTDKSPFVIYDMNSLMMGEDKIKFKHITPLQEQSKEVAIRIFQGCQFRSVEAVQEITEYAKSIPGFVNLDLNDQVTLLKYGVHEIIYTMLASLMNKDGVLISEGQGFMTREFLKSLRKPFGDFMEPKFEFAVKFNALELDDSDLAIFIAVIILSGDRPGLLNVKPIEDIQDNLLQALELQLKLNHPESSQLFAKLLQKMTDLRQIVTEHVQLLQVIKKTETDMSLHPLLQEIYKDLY
Experiment: SPR (Biacore T200), PPARG immobilized on CM5 chip
Type: binding

## CCCCC/C=C/C=C1/C(=O)C=C[C@@H]1C/C=C\CCCC(=O)O [15d-PGJ2, reference compound]
  Kd: 9.8 µM

## O=c1c(O)c(-c2ccc(O)cc2)oc2cc(O)cc(O)c12 [Kaempferol]
read-out: Kd
  Kd: 51 µM

## COc1cc2c(c(OC)c1OC)-c1c(cc3c(c1OC)OCO3)CC(C)C(C)C2 (stereo not shown) [schisandrin B]
read-out: Kd
  Kd: 22 µM

## O=C(/C=C/c1ccc(O)c(O)c1/C=C/c1ccc(O)c(O)c1)O[C@H](Cc1ccc(O)c(O)c1)C(=O)O [Salvianolic acid A]
read-out: Kd
  Kd: 3.5 µM
